The subject of the experiment is human platelet aggregation. Put plainly: Inhibitory effect on human platelet aggregation (collagen-induced, PRP, absorbance at 660 nm). Type of experiment: cell-based. The settings on record: concentration of collagen 2 µg/ml, 37 °C, read-out: percent inhibition of platelet aggregation (%); for inhibition at 10 µM: test drug 10 µM; for inhibition at 100 µM: test drug 100 µM. How it is done:
Inhibitory effect on human platelet aggregation
Using a syringe filled with 2.5 ml of sodium citrate solution (Citrate for erythrocyte sedimentation test (Kokusai) distributed by Green Cross Corporation) beforehand, human blood was collected in a total quantity of 25 ml and stirred well. The blood was then centrifuged at 200× g for 10 minutes and the supernatant was recovered as a PRP (platelet-rich plasma).
Horse tendon collagen [HORMON-CHEMIE MÜNCHEN GMBH, collagen reagent (Holm)] was previously diluted to 10 and 20 µg /ml with the accompanying buffer.
Each test drug was diluted with PBS and its concentration (mM) was estimated from ultraviolet absorption.
The assay for platelet aggregation was carried out with NKK HEMA TRACER 1 (Nikko Bioscience). The cell was filled with 0.2 ml of PRP and 0.025 ml of the test drug solution and the absorbance was measured at a constant temperature of 37 °C. Then, 0.025 ml of the above collagen solution was added and the absorbance was measured (wavelength 660 nm). The percent inhibition of platelet aggregation (%) was calculated by means of the following equation. [formula] [ ] represents the absorbance.

The record followed here is patent EP0533926A1, “[…]” (NIPPON SHINYAKU COMPANY, LIMITED, priority 1990, dated 1991).

What is called inhibition is the relative decrease from the control value, in per cent.

Turning to `Nc1nc2c(nc(Br)n2[C@@H]2O[C@@H]3COP(=O)(O)O[C@H]3[C@H]2O)c(=O)[nH]1` [Example 8-Br-c-GMP, 8-bromocyclic GMP], the inhibition at 10 µM worked out at 2.9% and the inhibition at 100 µM amounted to 49%.

Turning to `Nc1nc2c(ncn2[C@@H]2O[C@@H]3COP(=O)(O)O[C@H]3[C@H]2O)c(=O)[nH]1` [c-GMP, cyclic GMP], the inhibition at 10 µM was found to be 4% and the inhibition at 100 µM worked out at 23%.
